According to PubChem BioAssay (NCI):
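Assay format: 96-well plates, 48-hour exposure. GI50 = concentration required for 50% inhibition of growth. TGI marks complete inhibition of growth.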

Experiments:
Assay in all cases: NCI anticancer screen, dose series, 48 h
UACC-257 melanoma = system: UACC-257 melanoma
SK-MEL-28 melanoma = system: SK-MEL-28 melanoma
MDA-MB-435 = system: MDA-MB-435
IGROV1 ovarian = system: IGROV1 ovarian
CAKI-1 renal = system: CAKI-1 renal
SW-620 colon = system: SW-620 colon
MCF7 breast = system: MCF7 breast
OVCAR-8 ovarian = system: OVCAR-8 ovarian
CCRF-CEM leukemia = system: CCRF-CEM leukemia
HCC-2998 colon = system: HCC-2998 colon
PC-3 prostate = system: PC-3 prostate
KM12 colon = system: KM12 colon
HT29 colon = system: HT29 colon
SK-OV-3 ovarian = system: SK-OV-3 ovarian
RXF 393 renal = system: RXF 393 renal
BT-549 breast = system: BT-549 breast
MDA-MB-231 breast = system: MDA-MB-231 breast
786-0 renal = system: 786-0 renal
SF-268 CNS = system: SF-268 CNS
T-47D breast = system: T-47D breast
HS 578T breast = system: HS 578T breast
U251 CNS = system: U251 CNS
NCI-H522 lung = system: NCI-H522 lung
SNB-75 CNS = system: SNB-75 CNS
DU-145 prostate = system: DU-145 prostate
COLO 205 colon = system: COLO 205 colon
OVCAR-4 ovarian = system: OVCAR-4 ovarian
MALME-3M melanoma = system: MALME-3M melanoma
MOLT-4 leukemia = system: MOLT-4 leukemia
HCT-15 colon = system: HCT-15 colon
HOP-62 NSCLC = system: HOP-62 NSCLC
SK-MEL-5 melanoma = system: SK-MEL-5 melanoma
SF-295 CNS = system: SF-295 CNS
HCT-116 colon = system: HCT-116 colon
EKVX NSCLC = system: EKVX NSCLC
HL-60(TB) leukemia = system: HL-60(TB) leukemia
NCI-H23 lung = system: NCI-H23 lung
K-562 leukemia = system: K-562 leukemia
SN12C renal = system: SN12C renal
A549 NSCLC = system: A549 NSCLC
SR leukemia = system: SR leukemia
RPMI-8226 leukemia = system: RPMI-8226 leukemia
HOP-92 NSCLC = system: HOP-92 NSCLC
SNB-19 CNS = system: SNB-19 CNS

`Oc1ccc(CSc2nnc(-c3ccc(Cl)cc3)o2)c2cccnc12` was tested, and the GI50 (UACC-257 melanoma) was 3190 nM, the TGI (UACC-257 melanoma) was > 100000 nM and the GI50 (SK-MEL-28 melanoma) was 2380 nM. The TGI (SK-MEL-28 melanoma) was > 100000 nM, the GI50 (MDA-MB-435) was 2960 nM and the TGI (MDA-MB-435) was > 100000 nM. The GI50 (IGROV1 ovarian) was 2800 nM, the TGI (IGROV1 ovarian) was > 100000 nM and the GI50 (CAKI-1 renal) was 2910 nM. The TGI (CAKI-1 renal) was > 100000 nM, the GI50 (SW-620 colon) was 2910 nM and the TGI (SW-620 colon) was > 100000 nM. The GI50 (MCF7 breast) was 2660 nM, the TGI (MCF7 breast) was > 100000 nM and the GI50 (OVCAR-8 ovarian) was 2320 nM. For the same compound, the TGI (OVCAR-8 ovarian) was > 100000 nM, the GI50 (CCRF-CEM leukemia) was 1000 nM and the TGI (CCRF-CEM leukemia) was > 100000 nM. The GI50 (HCC-2998 colon) was 2290 nM, the TGI (HCC-2998 colon) was > 100000 nM and the GI50 (PC-3 prostate) was 1490 nM. For the same compound, the TGI (PC-3 prostate) was > 100000 nM, the GI50 (KM12 colon) was 1960 nM and the TGI (KM12 colon) was > 100000 nM. The GI50 (HT29 colon) was > 100000 nM, the TGI (HT29 colon) was > 100000 nM and the GI50 (SK-OV-3 ovarian) was 3150 nM. The TGI (SK-OV-3 ovarian) was > 100000 nM, the GI50 (RXF 393 renal) was 2370 nM and the TGI (RXF 393 renal) was > 100000 nM. For the same compound, the GI50 (BT-549 breast) was 2470 nM, the TGI (BT-549 breast) was > 100000 nM and the GI50 (MDA-MB-231 breast) was 3180 nM. The TGI (MDA-MB-231 breast) was > 100000 nM, the GI50 (786-0 renal) was 3220 nM and the TGI (786-0 renal) was > 100000 nM. For the same compound, the GI50 (SF-268 CNS) was 1560 nM, the TGI (SF-268 CNS) was > 100000 nM and the GI50 (T-47D breast) was 2540 nM. The TGI (T-47D breast) was > 100000 nM, the GI50 (HS 578T breast) was 1620 nM and the TGI (HS 578T breast) was 64700 nM. The GI50 (U251 CNS) was 1110 nM, the TGI (U251 CNS) was > 100000 nM and the GI50 (NCI-H522 lung) was 2920 nM. The TGI (NCI-H522 lung) was > 100000 nM, the GI50 (SNB-75 CNS) was 1520 nM and the TGI (SNB-75 CNS) was 7810 nM. The GI50 (DU-145 prostate) was 3670 nM, the TGI (DU-145 prostate) was > 100000 nM and the GI50 (COLO 205 colon) was > 100000 nM. The TGI (COLO 205 colon) was > 100000 nM, the GI50 (OVCAR-4 ovarian) was 3070 nM and the TGI (OVCAR-4 ovarian) was > 100000 nM. For the same compound, the GI50 (MALME-3M melanoma) was 2870 nM, the TGI (MALME-3M melanoma) was > 100000 nM and the GI50 (MOLT-4 leukemia) was 2370 nM. The TGI (MOLT-4 leukemia) was > 100000 nM, the GI50 (HCT-15 colon) was 698 nM and the TGI (HCT-15 colon) was > 100000 nM. The GI50 (HOP-62 NSCLC) was 2920 nM, the TGI (HOP-62 NSCLC) was > 100000 nM and the GI50 (SK-MEL-5 melanoma) was 1890 nM. For the same compound, the TGI (SK-MEL-5 melanoma) was 5160 nM, the GI50 (SF-295 CNS) was 2340 nM and the TGI (SF-295 CNS) was > 100000 nM. The GI50 (HCT-116 colon) was 1760 nM, the TGI (HCT-116 colon) was > 100000 nM and the GI50 (EKVX NSCLC) was 2760 nM. For the same compound, the TGI (EKVX NSCLC) was > 100000 nM, the GI50 (HL-60(TB) leukemia) was 1910 nM and the TGI (HL-60(TB) leukemia) was 9570 nM. The GI50 (NCI-H23 lung) was 2420 nM, the TGI (NCI-H23 lung) was > 100000 nM and the GI50 (K-562 leukemia) was 2170 nM. For the same compound, the TGI (K-562 leukemia) was > 100000 nM, the GI50 (SN12C renal) was 2540 nM and the TGI (SN12C renal) was > 100000 nM. The GI50 (A549 NSCLC) was 2780 nM, the TGI (A549 NSCLC) was > 100000 nM and the GI50 (SR leukemia) was 777 nM. The TGI (SR leukemia) was > 100000 nM, the GI50 (RPMI-8226 leukemia) was 1220 nM and the TGI (RPMI-8226 leukemia) was > 100000 nM. It also gave a GI50 (HOP-92 NSCLC) of 1140 nM, a TGI (HOP-92 NSCLC) of 6720 nM and a GI50 (SNB-19 CNS) of 1520 nM. For the same compound, the TGI (SNB-19 CNS) was > 100000 nM.
